We go through 12 molecules from US8168650B2, “Therapeutic uses of bicyclic ligands of sigma 2 receptor” (priority 2006, dated 2012).

Changes are numbered by the printed parent chain. Entries after “also recorded” stand apart in the source; their conditions may differ. Structures can show the parent of a compound that is named as a salt. Where two headings read alike, the source gives them in different places. Peptide text beside a SMILES is read from it. * marks the point of attachment. Cbz = O=C(OCc1ccccc1)*; CH2F = FC*

As a reminder, the Ki is a dissociation constant, usually derived from enzyme kinetics or from competition with a known ligand. In general, melting point refers to the temperature, or range, at which the solid turns liquid. In general, Kd refers to a measure of binding affinity in units of concentration.

Series [1] relates to EMT-6 cells. Particulars: EMT-6, 1 h pre-incubation with inhibitor (100 μM); for effect on cell death / cytotoxic effects induced by the three σ2 selective ligands: MTS assay. In general terms: Tetrazolium dyes change colour on reduction, which living cells bring about.
Experimental: To determine the effect of blocking the caspase-dependent apoptotic pathway on sigma ligand-induced cell killing, the caspase inhibitors, Z-VAD-FMK or Z-DEVD-FMK (Calbiochem, San Diego, Calif.) were added to the culture medium 1 hour before the sigma ligands, and the MTS assay performed as described above.
A further series relates to Panc-02 cells. Briefly: Caspase inhibitors on sigma-2 receptor ligand-induced apoptosis in Panc-02 cells. It is filed as cell-based, mouse. As to the method: (§1) Tumor cells were seeded at a density of approximately 0.2×10^6 cells per well in 12-well plates in 1.0 ml culture medium. Cells were split and pre-incubated at 37° C. in humidified 5% CO2 for more than 24 hours (Panc-02) and 48 hours (CFPAC-1, AsPC-1, Panc-1) to insure uniform growth conditions. Compounds were dissolved in DMSO and added to the culture medium at the concentrations indicated. The final concentration of DMSO in the cell culture medium was less than 1%. The cells were then incubated for 24 hours at 37° C. in humidified 5% CO2. The extent of apoptosis was subsequently measured as previously reported (Guelen, L., et al., Oncogene 2004, 23: 1153-1165). Briefly, staining was performed on trypsin-EDTA treated cultures that had been fixed with 1% paraformaldehyde and 90% methanol. Cell pellets were resuspended in TUNEL reagent (APO-BRDU kit, San Diego, Calif.) or cleaved caspase-3 antibody (Cell Signaling Technology, Inc. Boston, Mass.) and incubated overnight at room temperature (TUNEL) or 4° C. (cleaved caspase-3). After washing, cells were resuspended in fluorescein antibody or 7-AAD buffer and incubated for 1 hour at room temperature. Cell-associated fluorescence was determined using a flow cytometry (FACScan, BD Biosciences) and analyzed with CellQuest software (BD Biosciences).
(§2) At the highest dose tested (10 μM), all sigma-2 receptor ligands induced an additional 10-20% of the cells to undergo apoptosis (FIG. 15A). […] The pan-caspase inhibitor (Z-VAD-fmk) and caspase-3/7 inhibitor (DEVD-CHO) prevented sigma-2 receptor ligand-induced apoptosis in panc-02 cells, while the caspase-1 inhibitor (YVAD-CHO) had no effect (FIG. 15B).

In the next series the target is T1, σ2 receptor (Rattus norvegicus, UniProt Q5U3Y7).
T1 construct: from tissue; host or cells: rat liver membrane homogenates
T1 sequence (Q5U3Y7 1-176): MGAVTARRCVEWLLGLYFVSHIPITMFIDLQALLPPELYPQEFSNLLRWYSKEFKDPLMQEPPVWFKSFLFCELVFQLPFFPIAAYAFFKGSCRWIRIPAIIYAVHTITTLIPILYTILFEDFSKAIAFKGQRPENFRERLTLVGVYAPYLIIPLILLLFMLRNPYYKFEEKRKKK
Briefly: σ2 receptor binding assay, [3H]DTG or [3H]RHM-1. Particulars: for σ1/σ2 Ratio: Ki for σ1/Ki for σ2; for Ki: inhibiting binding of [3H]DTG or [3H]RHM-1 to rat liver homogenates, mean ± SEM, read-out: Ki σ2.

Another series concerns the target σ1 receptor (Cavia porcellus, UniProt Q60492).
For series [2], the system named is pancreatic cancer cell lines (Panc-02, CFPAC-1, AsPC-1, Panc-1). Briefly: Apoptosis in pancreas cancer cell lines (TUNEL / cleaved caspase-3, flow cytometry). The series is classed as cell-based, mouse, human. The procedure: as §1, §2
(In general: Flow cytometry measures light scatter and fluorescence of single cells or particles in a stream.)

In another series the test system is CFPAC-1. Briefly: Apoptosis in CFPAC-1 cells. It is filed as cell-based, human. Particulars: CFPAC-1, highest dose tested. As to the method: as §1, with “Biosciences). […]” for “Biosciences).”
For series [3], the system named is EMT-6 cells. Briefly: Colony formation assay on Doxorubicin-treated EMT-6 cells. The series is classed as cell-based, mouse. As to the method:
This Example illustrates colony formation assay on Doxorubicin (“Dox”)-treated EMT-6 cells in the presence or absence of 2 μM WC-II-26. The structures of the sigma ligands used in this and subsequent examples are illustrated in FIG. 5 and FIG. 6.

For series [4], the system named is EMT-6 cells. The experiment in a line: TUNEL assay, enhancement of Dox-induced apoptosis in EMT-6 cells. Particulars: EMT-6, Dox 30 nM alone. The series is classed as cell-based, mouse. As to the method: In these experiments, a TUNEL assay was used to detect apoptotic cells with damaged DNA strands. […] Furthermore, EMT-6 cells treated with Dox at 30 nM yielded only 10% TUNEL-positive cells. However, when EMT-6 cells were treated with 2 μM WC-II-26 plus 30 nM Dox, the percentage of TUNEL-positive cells rose to 43.3%.

Another series concerns the target T2, sigma-2 receptors (Mus musculus, UniProt Q8VD00).
T2 construct: Membrane homogenates were prepared from ˜400 mg Panc-02 mouse tumor allografts; from tissue; host or cells: Panc-02 mouse pancreatic tumor allografts (membrane homogenates)
T2 sequence (Q8VD00 1-176): T1 sequence (Q5U3Y7 1-176) with V4L, T5A, M26L, L33V, F71L, V105A, I118L, I127V, N136S, F169Y
Briefly: Saturation binding (Scatchard analysis) of [3H]RHM-1 in Panc-02 tumor allograft membrane homogenates. The procedure: Membrane homogenates were prepared from ˜400 mg Panc-02 mouse tumor allografts, which were removed from tumor bearing mice and frozen on dry ice immediately and stored at −80° C. until used. Before homogenization, the tumor allografts were allowed to thaw slowly on ice. Tissue homogenization was carried out at 4° C. using a Potter-Elvehjem tissue grinder at a concentration of 1 g of tissue/ml of 50 mM Tris-HCl at pH 8.0. The crude membrane homogenate was then transferred to a 50 ml centrifuge tube and resuspended to a concentration of 200 mg of tissue/ml of 50 mM Tris-HCl. Additional homogenization was accomplished using an Ultra-Turrax T8 polython homogenizer (IKA Works, Inc, Wilmington, N.C.). The final homogenate was then centrifuged for 10 min at 1000 g, the pellet discarded and the supernatant mixed by vortexing and stored at −80° C. until used. The protein concentration of the suspension was determined (DC protein assay, Bio-Rad, Hercules, Calif.) and averaged ˜10 mg of protein/ml of stock solution. […] The concentrations of the radioligand ranged from 0.1-18 nM. […] Each filter was washed with 200 μl of ice-cold wash buffer for a total of three washes. […] The equilibrium dissociation constant (Kd) and maximum number of binding sites (BBmax) were determined by a linear regression analysis of the transformed data using the method of Scatchard.
Data from saturation radioligand binding studies was transformed to determine the Hill coefficient, nH, defined as: […]
In these experiments, direct saturation binding studies were carried out using [^3H]RHM-1 with membrane homogenates of PancO2 tumor allografts.

The mark [5] stands for this setting: membrane homogenates of Panc-02 tumor allografts.

Chain of σ1 receptor (Q60492 whole entry): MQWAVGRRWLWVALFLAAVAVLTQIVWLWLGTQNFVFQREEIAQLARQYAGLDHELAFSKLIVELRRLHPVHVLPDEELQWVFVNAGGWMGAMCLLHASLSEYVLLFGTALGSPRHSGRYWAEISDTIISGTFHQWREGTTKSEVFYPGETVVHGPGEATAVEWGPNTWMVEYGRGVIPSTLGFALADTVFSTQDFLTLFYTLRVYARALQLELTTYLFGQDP
Experimental for σ1 receptor: (§3) In vitro binding studies were conducted in order to determine the affinity of the target compounds at σ1 and σ2 receptors.
(§4) In this example, test compounds were dissolved in N,N-dimethylformamide (DMF), dimethylsulfoxide (DMSO) or ethanol and then diluted in 50 mM Tris-HCl, pH 7.4 buffer containing 150 mM NaCl and 100 mM EDTA. Membrane homogenates were made from guinea pig brain for σ1 binding assays and rat liver for σ2 binding assays. Membrane homogenates were diluted with 50 mM Tris-HCl buffer, pH 8.0, and incubated at 25° C. in a total volume of 150 μL in 96-well plates with the radioligand and test compounds with concentrations ranging from 0.1 nM to 10 μM. After incubation was completed, the reactions were terminated by the addition of 150 μL of ice-cold wash buffer (10 mM Tris-HCl, 150 mM NaCl, pH 7.4) using a 96-channel transfer pipette (Fisher Scientific, Pittsburgh, Pa.), and the samples harvested and filtered rapidly through 96-well fiberglass filter plate (Millipore, Billerica, Mass.) that had been presoaked with 100 μL of 50 mM Tris-HCl buffer, pH 8.0, for 1 h. Each filter was washed three times with 200 μL of ice cold wash buffer.
(§5) Ki values were calculated using the method of Cheng and Prusoff20 and represent mean values±SEM.
Experimental for σ2 receptor: as §3, §4, §5

With `COC(=O)CC[C@H](NC(=O)[C@H](CC(=O)OC)NC(=O)OCc1ccccc1)C(=O)N[C@H](C(=O)N[C@@H](CC(=O)OC)C(=O)CF)C(C)C` [Z-DEVD-FMK], the “effect on cell death / cytotoxic effects induced by the three σ2 selective ligands” value in the series with EMT-6 cells [1] was “partially blocked; also recorded: partially, but not completely, blocked”.

On to `COC(=O)C[C@H](NC(=O)[C@H](C)NC(=O)[C@@H](NC(=O)OCc1ccccc1)C(C)C)C(=O)CF` [Z-VAD-FMK] (Cbz-Val-Ala-Asp(OMe)-CH2F), for which the “effect on sigma-2 receptor ligand-induced apoptosis” value in the series with Panc-02 cells is listed as “prevented”. For the same molecule, the “effect on DNA fragmentation after treatment with the three σ2 selective ligands” value in the series on EMT-6 cells [1] is recorded as “partially blocked”. Moreover, the “effect on cell death / cytotoxic effects induced by the three σ2 selective ligands” value in the series on EMT-6 cells [1] is given as “partially, but not completely, blocked”; with EMT-6 cells [1] (listed as Z-VADFMK), “partially blocked”.

As to “N-(9-(4-(40-Iodobenzoylamino)hexyl)-9-azabicyclo[3.3.1]nonan-3α-yl)-N-(2-methoxy-5-methylphenyl)carbamate oxalate [Compound 4d]”, at σ2 receptor, the “σ1/σ2 Ratio” value is 1.40 and the inhibition constant (Ki) amounted to 1010 nM. Also, the Ki at σ1 receptor came to 1410 ± 318 nM.

Regarding `O=C(CCCN1CCC(O)(c2ccc(Cl)cc2)CC1)c1ccc(F)cc1` [Haloperidol, reference compound], in [2] (24 hours incubation), the “apoptosis in all pancreas cancer cell lines tested” value is “dose-dependent apoptosis”.

In the case of `CC(=O)N[C@@H](CC(=O)O)C(=O)N[C@@H](CCC(=O)O)C(=O)N[C@H](C(=O)N[C@H](C=O)CC(=O)O)C(C)C` [DEVD-CHO], in the series with Panc-02 cells, the “effect on sigma-2 receptor ligand-induced apoptosis” value was “prevented”.

As for `COc1ccc(C)cc1NC(=O)O[C@H]1C[C@H]2CCC[C@@H](C1)N2CCCCCCN.Cl` [Compound 1b, N-(9-(6-Aminohexyl)-9-azabicyclo[3.3.1]nonan-3α-yl)-N-(2-methoxy-5-methyl-phenyl)carbamate hydrochloride], at σ2 receptor, the “σ1/σ2 Ratio” value is listed as 273 and the Ki turned out to be 5.19 ± 0.8 nM. Further, the “affinity and selectivity for σ2 versus σ1 receptors (in words)” value on σ2 receptor (hydrochloride) was “highest affinity and selectivity; also recorded: moderate affinity and selectivity”. This molecule gave a Ki on σ1 receptor of 1420 ± 439 nM.

Regarding `CC(C)=CCN1CCC2(C)c3cc(O)ccc3CC1C2C` (stereo not drawn) [pentazocine, reference compound], the “toxicity to pancreas cancer cell lines” value in [2] (all cell lines tested with the exception of CFPAC-1) is listed as “minimal toxicity”. In the series with CFPAC-1, the increase in apoptosis was 8-10%.

For the molecule `CC(=O)N[C@@H](Cc1ccc(O)cc1)C(=O)N[C@H](C(=O)N[C@@H](C)C(=O)N[C@H](C=O)CC(=O)O)C(C)C` [YVAD-CHO], the “effect on sigma-2 receptor ligand-induced apoptosis” value in the series with Panc-02 cells was “no effect”.

For the molecule `COc1ccc(C)cc1NC(=O)OC1C[C@H]2CCC[C@@H](C1)N2CCCCCCN` (stereo partly drawn) [SV119], on σ2 receptor, the “σ1/σ2 Ratio” value was determined as 273 and the Ki turned out to be 5.2 nM. On σ1 receptor, the Ki was determined as 1420 nM.

Consider `COc1ccc(C)cc1NC(=O)OC1CC2CCCC(C1)N2CCCCCCNS(=O)(=O)c1cccc2c(N(C)C)cccc12` (stereo not drawn) (as salt: oxalate) [Compound 9, N-(9-(6-(5-Dimethylamino-1-naphthalenesulfonamido))hexyl)-9-azabicyclo[3.3.1]-nonan-3α-yl-N-(2-methoxy-5-methylphenyl)carbamate oxalate], for which the melting point fell in the range of 162 to 163 °C.

With `COc1cccc2c1C(=O)c1c(O)c3c(c(O)c1C2=O)C[C@@](O)(C(=O)CO)C[C@@H]3O[C@H]1C[C@H](N)[C@H](O)[C@H](C)O1` [Dox, Doxorubicin, reference compound], the “number of colonies formed compared to control cells” value in the series with EMT-6 cells [3] (EMT-6, 10, 20, and 30 nM of Dox alone) is “not changed significantly”. The “decrease in colony forming efficiency” value in the series on EMT-6 cells [3] (EMT-6, Dox 40 nM alone) is on record as “about 25%”. The TUNEL-positive cells with EMT-6 cells [4] was 10%.

Regarding `COc1cc2c(cc1OC)CN(CCCCNC(=O)c1cc(C)ccc1OC)CC2` [[3H]RHM-1], at sigma-2 receptors (setting [5]), the “Bmax (maximum number of binding sites)” value amounted to 1250 fmol/mg protein and the Kd was 4.88 nM. In addition, the “Hill coefficient nH (mean)” value on sigma-2 receptors (saturation binding, Panc-02 tumor allografts) is reported as “close to unity”.
